# How the values were obtained:
# AR 1.0 cells [1] = experiment: Drug accumulation assay: daunorubicin accumulation in AR 1.0 cells; format: cell-based; settings: Mus musculus, 100% = accumulation with verapamil 100 μM, 1 hr, 37° C.
# Method: (§1) The EMT6 mouse mammary carcinoma cell line and the MDR resistant subline AR 1.0 were cultured in RPMI 1640 medium containing 10% foetal calf serum and 2 mM glutamine at 37° C. in 5% CO2. Cells were passaged between 1 in 200 and 1 in 2000 in the case of the parental cell line and between 1 in 20 and 1 in 200 in the case of the MDR resistant subline, after trypsinisation (0.25% trypsin, 0.2 gl^-1, EDTA).
# AR 1.0 cells were seeded 48 hours prior to assay into 96 well opaque culture plates (Canberra Packard).
# AR 1.0 cells [2] = experiment: Potentiation index with doxorubicin titration; format: cell-based, mouse; settings: for Potentiation Index at RMA concentration 10 nM: Table C1, RMA 10 nM; for Potentiation Index at RMA concentration 30 nM: Table C1, RMA 30 nM; for Potentiation Index at RMA concentration 50 nM: Table C1, RMA 50 nM; for Potentiation Index at RMA concentration 100 nM: Table C1, RMA 100 nM
# Method: as §1, with “EDTA). […]” for “EDTA).”
# (b) Cells were cultured for four days with a titration of doxorubicin (0.263 nM-17.24 μM) in the presence of a fixed concentration of each compound. Proliferation was quantified as described by Skehen et al, loc cit. The IC50 (concentration required to reduce proliferation to 50% of the untreated controls) for doxorubicin alone and with each compound were derived and used to calculate the potentiation index (PI): [formula]
SMILES,IC50 (AR 1.0 cells [1]) [nM],Potentiation Index at RMA concentration 10 nM (AR 1.0 cells [2]),Potentiation Index at RMA concentration 30 nM (AR 1.0 cells [2]),Potentiation Index at RMA concentration 50 nM (AR 1.0 cells [2]),Potentiation Index at RMA concentration 100 nM (AR 1.0 cells [2])
"O=C(Nc1ccccc1C(=O)Nc1ccc(CCN2Cc3ccccc3C2)cc1)c1cnc2ccccc2c1 [compound 9626, Quinoline-3-carboxylic acid (2-{4-[2-(1,3-dihydro-isoindol-2-yl)-ethyl]-phenylcarbamoyl}-phenyl)-amide]",278,1.2,4,8,27
"COc1ccc(CCN(C)CCc2ccc(NC(=O)c3ccccc3NC(=O)c3cnc4ccccc4c3)cc2)cc1OC [compound 9630, Quinoline-3-carboxylic acid {2-[4-(2-{[2-(3,4-dimethoxy-phenyl)-ethyl]-methyl-amino}-ethyl)-phenylcarbamoyl]-phenyl}-amide]",235,1,2,6,26
"Cc1ccc(CN(C)CCc2ccc(NC(=O)c3ccccc3NC(=O)c3cnc4ccccc4c3)cc2)cc1C [compound 9631, Quinoline-3-carboxylic acid [2-(4-{2-[(3,4-dimethyl-benzyl)-methyl-amino]-ethyl}-phenylcarbatnoyl)-phenyl]-amide]",669,1,9,20,67
"COc1cc2c(cc1OC)CN(CCOc1ccc(NC(=O)c3ccccc3NC(=O)c3cnc4ccccc4n3)cc1)CC2 [compound 9632, Quinoxaline-2-carboxylic acid (2-{4-[2-(6,7-dimethoxy-3,4-dihydro-1H-isoquinolin-2-yl)-ethoxy]-phenylcarbamoyl}-phenyl)-amide]",431,1.1,2.1,2.7,8
"COc1cc2c(cc1OC)CN(CCc1cccc(NC(=O)c3ccccc3NC(=O)c3cnc4ccccc4c3)c1)CC2 [compound 9633, Quinoline-3-carboxylic acid (2-{3-[2-(6,7-dimethoxy-3,4-dihydro-1H-isoquinolin-2-yl)-ethyl]-phenylcarbamoyl}-phenyl)-amide]",593,1.0,1.3,3.4,13.7
"COc1cc2c(cc1OC)CN(CCc1ccc(NC(=O)c3ccccc3NC(=O)c3csc(C)n3)cc1)CC2 [compound 9635, 2-Methyl-thiazole-4-carboxylic acid (2-{4-[2-(6,7-dimethoxy-3,4-dihydro-1H-isoquinolin-2-yl)-ethyl]-phenylcarbamoyl}-phenyl)-amide]",669,,1.3,2,7
CCN(CCc1ccc(NC(=O)c2ccccc2NC(=O)c2cnc3ccccc3c2)cc1)Cc1ccc(OC)c(OC)c1 [compound 9636],184,2.6,22,46,131
"COc1cc2c(cc1OC)CN(CCc1ccc(NC(=O)c3ccccc3NC(=O)c3coc(C)n3)cc1)CC2 [compound 9638, 2-Methyl-oxazole-4-carboxylic acid (2-{4-[2-(6,7-dimethoxy-3,4-dihydro-1H-isoquinolin-2-yl)-ethyl]-phenylcarbamoyl}-phenyl)-amide]",552,,1.1,1.5,2.6
"COc1ccc(CN(C)CCc2ccc(NC(=O)c3ccccc3NC(=O)c3cnc4ccccc4c3)cc2)cc1OC(C)C [compound 9639, Quinoline-3-carboxylic acid [2-(4-{2-[(3-isopropoxy-4-methoxy-benzyl)-methyl-amino]-ethyl}-phenylcarbamoyl)-phenyl]-amide]",108,2.6,34,78,136
"COc1cc(CN(C)CCc2ccc(NC(=O)c3ccccc3NC(=O)c3cnc4ccccc4c3)cc2)cc(OC)c1OC [compound 9640, Quinoline-3-carboxylic acid [2-(4-{2-[methyl-(3,4,5-trimethoxy-benzyl)-amino]-ethyl}-phenylcarbamoyl)-phenyl]-amide]",194,1,2.5,4.6,23.8
"CCCCN(CCc1ccc(NC(=O)c2ccccc2NC(=O)c2cnc3ccccc3c2)cc1)Cc1ccc(OC)c(OC)c1 [compound 9641, Quinoline-3-carboxylic acid [2-(4-{2-[butyl-(3,4-dimethoxy-benzyl)-amino]-ethyl}-phenylcarbamoyl)-phenyl]-amide]",1.9,1.5,17,46,162
"CCCCOc1ccc(CN(C)CCc2ccc(NC(=O)c3ccccc3NC(=O)c3cnc4ccccc4c3)cc2)cc1OC [compound 9642, Quinoline-3-carboxylic acid [2-(4-{2-[(4-butoxy-3-methoxy-benzyl)-methyl-amino]-ethyl}-phenylcarbamoyl)-phenyl]-amide]",341,1.0,1.2,2.5,14
"CN(CCc1ccc(NC(=O)c2ccccc2NC(=O)c2cnc3ccccc3c2)cc1)Cc1ccc(F)c(F)c1 [compound 9643, Quinoline-3-carboxylic acid [2-(4-{2-[(3,4-difluoro-benzyl)-methyl-amino]-ethyl}-phenylcarbamoyl)-phenyl]-amide]",425,1.0,1.5,2.4,6.7
"CN(CCc1ccc(NC(=O)c2ccccc2NC(=O)c2cnc3ccccc3c2)cc1)Cc1ccc2c(c1)OCCO2 [compound 9645, Quinoline-3-carboxylic acid [2-(4-{2-[(2,3-dihydro-benzo [1,4]dioxin-6-ylmethyl)-methyl-amino]-ethyl}-phenylcarbamoyl)-phenyl]-amide]",179,1.0,1.3,2.1,7.2
"COc1cc(CN(C)CCc2ccc(NC(=O)c3ccccc3NC(=O)c3cnc4ccccc4c3)cc2)ccc1OC(C)C [compound 9646, Quinoline-3-carboxylic acid [2-(4-{2-[(4-isopropoxy-3-methoxy-benzyl)-methyl-amino]-ethyl}-phenylcarbamoyl)-phenyl]-amide]",295,1.0,1.1,1.3,4.8
"COc1ccc(CN(C)CCc2ccc(NC(=O)c3ccccc3NC(=O)c3cnc4ccccc4c3)cc2)cc1O [compound 9647, Quinoline-3-carboxylic acid [2-(4-{2-[(3-hydroxy-4-methoxy-benzyl)-methyl-amino]-ethyl}-phenylcarbamoyl)-phenyl]-amide]",33,,,1,6
"COc1cc2c(cc1OC)CN(CC(O)COc1ccc(NC(=O)c3ccccc3NC(=O)c3cnc4ccccc4c3)cc1)CC2 (stereo not drawn) [compound 9648, Quinoline-3-carboxylic acid (2-{4-[3-(6,7-dimethoxy-3,4-dihydro-1H-isoquinolin-2-yl)-2-hydroxy-propoxy]-phenylcarbamoyl}-phenyl)-amide]",38,16,34,,
"COc1cc(CN(C)CCc2ccc(NC(=O)c3ccccc3NC(=O)c3cnc4ccccc4c3)cc2)ccc1O [compound 9649, Quinoline-3-carboxylic acid [2-(4-{2-[(4-hydroxy-3-methoxy-benzyl)-methyl-amino]-ethyl}phenylcarbamoyl)-phenyl]-amide]",188,53,46,60,66

# From US6218393A, “Anthranilic acid derivatives as multi drug resistance modulators” (priority 1997, dated 2001)
